# According to patent publication US20260108465A1 (Belhaven BioPharma Inc., priority 2024, published 2026):
# Where two headings read alike, the source gives them in different places.
# Settings: human, in vivo; for mean AUC0-363: im
# Experimental: Twelve human subjects participated in the open-label, single sequence crossover study. […] The subjects returned for a safety follow up visit 3 to 5 days after the final treatment. […] Nor did the subject participate in Treatment D.
# The dry powder formulation was administered via intranasal instillation once using a nasal device (APTAR). The IM solution and materials were supplied by the study site and prepared according to the local procedures. The study drug was administered at approximately the same time on each treatment day. There was a washout period of 20 days between the nasal doses administered as treatment A and treatment D. The subjects were admitted to the clinical site the day before each treatment administration and remained on site until at least 8 hours post-dose, or when applicable, until 24 hours post-dose of the specific treatment period. The study drug was administered after at least a 10 hour fast. A standardized meal was provided approximately 4 hours after dosing.
# Blood samples were collected prior to dosing at 60, 30, and 0 minutes before dosing, and after dosing at 2, 5, 7, 10, 15, 20, 25, 30, 45, 60, 90, 120, 180, 240, and 360 minutes. Vital signs, ECGs, and cardiac telemetry were obtained throughout the treatment period. […] The calibration curve range of the bioanalytical method was from 10 to 10000 pg/mL.
# Noncompartmental analysis was performed on individual human subject plasma concentration-time data using nominal doses and actual blood sampling times. […] Baseline correction was accomplished using the average of the measured concentrations at nominal times of −60, −30, and 0 minutes before dosing.
# Pharmacokinetic analyses were performed using the standard PK analysis software package PHOENIX® WinNonlin version 8.4.
smiles,measurement,setting,value
"CNC[C@H](O)c1ccc(O)c(O)c1 [Epinephrine IM, epinephrine]",time of the second IM Cmax after dosing,,approximately 45 minutes
same,mean AUC0-363,0.3 mg,18790 pg·min/mL
same,mean AUC0-363,0.5 mg,35890 pg·min/mL
